The TGI is the concentration at which net growth stops. Low values mean greater sensitivity of the cells, high ones lower sensitivity of the cells. Usually GI50 stands for the concentration at which growth is held to half of that of the control.

Our source for the TGI and GI50 values is PubChem BioAssay (NCI).

Values joined by “and” are separate entries in the source; they are usually repeats but may differ in a detail not shown here. Equal values may be shown once.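 Five concentrations, 48 hours, 96-well plates. Abbreviation: GI50, concentration required for 50% inhibition of growth. TGI is the concentration that stops growth completely.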 Where only a bound is given, the exact number is not on record here.

Test systems include KM12 colon; T-47D breast; NCI-H460 lung; CCRF-CEM leukemia; M14 melanoma; BT-549 breast; NCI-H522 lung; MOLT-4 leukemia; HT29 colon; PC-3 prostate.
What all share (test): DTP human tumour cell line panel, 48 h

As for `Cc1[nH]nc(C(F)(F)F)c1N=NN(C)C`, the concentration for total growth inhibition (TGI) with KM12 colon is 29.3 µM; in the assay on T-47D breast, > 100 µM; with NCI-H460 lung, 26.6 µM; in the assay on CCRF-CEM leukemia, 16 µM; with M14 melanoma it was 29.7 µM; in the assay on BT-549 breast, 24.9 µM. In addition, the TGI came to 2.98 µM in the assay on NCI-H522 lung, 5.02 µM in the assay with MOLT-4 leukemia, 34.1 µM in the assay on HT29 colon and 25.1 µM in the assay on PC-3 prostate.

As to `C[C@@H]1C[C@H](C)CN(S(=O)(=O)c2ccc3c(NO)c4ccc(S(=O)(=O)N5C[C@H](C)C[C@H](C)C5)cc4c(N=O)c3c2)C1`, the GI50 in the assay on KM12 colon was 0.0833 µM; in the assay on T-47D breast, 0.178 µM; with NCI-H460 lung, 0.0565 µM; with M14 melanoma, 0.103 µM; with BT-549 breast it was 0.175 µM; in the assay with NCI-H522 lung, 0.181 µM. Further, the GI50 in the assay with MOLT-4 leukemia was 0.0478 µM; with HT29 colon it was 0.159 µM; in the assay on PC-3 prostate it was 0.117 µM. In addition, the TGI in the assay on KM12 colon came out at 0.257 µM; in the assay with T-47D breast, 0.362 µM; in the assay on NCI-H460 lung, 0.222 µM; in the assay with M14 melanoma, 0.231 µM; in the assay on BT-549 breast it was 0.34 µM; with NCI-H522 lung, 0.36 µM. Further, the figures for the TGI in the assay on MOLT-4 leukemia, with HT29 colon and in the assay on PC-3 prostate were 0.194 µM, 0.313 µM and 0.249 µM, respectively.

Consider `Cn1c(-c2c(N)n(Nc3cccc(Cl)c3)c3nc(C#N)c(C#N)nc23)nc2ccccc21`, for which the GI50 with KM12 colon was 9.57 µM; in the assay with T-47D breast, 13.2 µM; in the assay with NCI-H460 lung, 13.3 µM; in the assay on CCRF-CEM leukemia it was 23.5 µM; in the assay with M14 melanoma, 6.51 µM; in the assay with BT-549 breast it was 0.0816 µM. For the same compound, the figures for the GI50 in the assay with NCI-H522 lung, in the assay on MOLT-4 leukemia and in the assay on PC-3 prostate were 1.06 µM, > 50 µM and 10.5 µM, respectively. For the same compound, the TGI in the assay with KM12 colon is 26.1 µM; in the assay with T-47D breast it was > 50 µM; with NCI-H460 lung, > 50 µM; with CCRF-CEM leukemia it was > 50 µM; with M14 melanoma, 20 µM; in the assay with BT-549 breast, 1.97 µM. In addition, the TGI with NCI-H522 lung is 8.19 µM; in the assay with MOLT-4 leukemia, > 50 µM; in the assay on PC-3 prostate it was 33.9 µM.

On to `O=S(=O)(NCCNc1nccc(-c2c(-c3ccc(F)c(O)c3)nc3sccn23)n1)c1ccc(F)cc1`, for which the GI50 in the assay with KM12 colon was 2.89 µM; in the assay with T-47D breast, 5.02 µM; in the assay on NCI-H460 lung it was 3.43 µM; in the assay on M14 melanoma, 0.364 µM; in the assay with BT-549 breast, 2.99 µM; with NCI-H522 lung, 3.31 µM. The GI50 in the assay with MOLT-4 leukemia is 2.71 µM; with HT29 colon, 4.19 µM. For the same compound, the TGI in the assay on KM12 colon was 14.6 µM; in the assay on T-47D breast, 28 µM; in the assay on NCI-H460 lung, 17.2 µM; in the assay on M14 melanoma, 16.5 µM; in the assay with BT-549 breast it was 23.4 µM; with NCI-H522 lung it was 19.2 µM. Also, the TGI in the assay on MOLT-4 leukemia worked out at 12.9 µM; in the assay with HT29 colon, 31.1 µM.

As for `COc1ccc(S(=O)(=O)N2CCN(C(=O)c3ccc(-c4ccccc4)cc3)CC2C(=O)NO)cc1` (stereo not drawn), the TGI in the assay with T-47D breast is 12.5 µM and > 100 µM; with NCI-H460 lung, 12.5 µM and > 100 µM; with CCRF-CEM leukemia, > 100 µM; with M14 melanoma, 10 µM; with BT-549 breast it was 6.69 µM; in the assay on MOLT-4 leukemia, 95.9 µM. In the assay on HT29 colon, this compound returned a TGI of 12.5 µM. The GI50 in the assay on NCI-H460 lung was 3.62 µM and 29.3 µM; in the assay with CCRF-CEM leukemia it was > 100 µM; with M14 melanoma it was 1.96 µM; in the assay with BT-549 breast, 2.48 µM; with MOLT-4 leukemia, 15.9 µM; with HT29 colon, 0.889 µM. Moreover, the GI50 with PC-3 prostate was 2.01 µM and 17.9 µM.

For the compound `CCCCCCCCCCCCCCCCCC1=NC(C)(C)CN1CC(C)O` (stereo not drawn), the GI50 in the assay on KM12 colon was 6.18 µM; in the assay with T-47D breast it was 6.58 µM; with NCI-H460 lung, 2.78 µM; with CCRF-CEM leukemia, 2.71 µM; in the assay with M14 melanoma, 2.29 µM; in the assay on BT-549 breast, 19.7 µM. For the same compound, the GI50 with NCI-H522 lung is 4.5 µM; with HT29 colon it was 3.02 µM; with PC-3 prostate it was 3.31 µM. Besides, the TGI with KM12 colon is 19.5 µM; in the assay with T-47D breast, 28 µM; in the assay on NCI-H460 lung, 7.06 µM; in the assay with CCRF-CEM leukemia, 7.39 µM; with M14 melanoma it was 5.77 µM; with BT-549 breast, 40.9 µM. Also, the TGI in the assay with NCI-H522 lung came out at 23.8 µM; with HT29 colon, 7.42 µM; in the assay on PC-3 prostate, 10.8 µM.

For `COc1ccc(-c2cs/c(=N\N=C\c3ccc(O)cc3O)n2/N=C/c2ccc(O)cc2O)cc1`, the GI50 in the assay with KM12 colon was 1.98 µM; in the assay with T-47D breast it was 1.65 µM; in the assay with NCI-H460 lung it was 2.01 µM; in the assay with M14 melanoma, 1.63 µM; with BT-549 breast, 1.54 µM; with NCI-H522 lung, 1.88 µM. Besides, the GI50 is 1.79 µM with MOLT-4 leukemia and 2.41 µM in the assay with HT29 colon. The TGI in the assay on KM12 colon was determined as 4.6 µM; in the assay with T-47D breast, 6.22 µM; with NCI-H460 lung it was 4.43 µM; in the assay with M14 melanoma it was 3.21 µM; in the assay on BT-549 breast, 3.59 µM; in the assay with NCI-H522 lung, 4.68 µM. The TGI in the assay on MOLT-4 leukemia amounted to 5.05 µM; with HT29 colon it was 5.26 µM.

In the case of `CCOC(=O)C(Cc1c[nH]c2c(N(CCO)CCO)cccc12)(NC(C)=O)C(=O)OCC`, the GI50 with KM12 colon is 302 µM; in the assay on T-47D breast it was 396 µM; with NCI-H460 lung, 642 µM; in the assay on CCRF-CEM leukemia, 59.4 µM and 190 µM; with M14 melanoma, > 1000 µM; in the assay on BT-549 breast, 564 µM. The figures for the GI50 in the assay on NCI-H522 lung, with HT29 colon and in the assay with PC-3 prostate were > 1000 µM, 140 µM and 409 µM, respectively. Further, the TGI with KM12 colon is 978 µM; in the assay on T-47D breast it was > 1000 µM; with NCI-H460 lung, > 1000 µM; in the assay with CCRF-CEM leukemia, 430 µM; with M14 melanoma, > 1000 µM; with BT-549 breast, > 1000 µM. The TGI with NCI-H522 lung was > 1000 µM; in the assay on HT29 colon, 417 µM; in the assay on PC-3 prostate it was > 1000 µM.
